In patent US20230301895A1, “NAIL FORMULATIONS AND TREATMENT REGIMES” (NOVABIOTICS LIMITED, priority 2020, published 2023):
Values after ≈ are worked out from the molar mass of the structure shown. Where a SMILES comes first, the peptide text is derived from it. [ ]: non-standard residue; d: D form. The star is where a group is joined. Sta = CC(C)C[C@H](N)[C@@H](O)CC(=O)O; Isovaleryl = CC(C)CC(=O)*

How the values were obtained:
[1] = test system: T. rubrum NCPF0118; format: cell-based, Trichophyton rubrum; conditions: for effect of protease inhibitor alone on growth: 1 mM PMSF, 1 mg/L Pepstatin A, 10 µM E-64; for effect of protease inhibitor alone on growth / growth inhibition by protease inhibitor alone: 100 µM EDTA; for growth inhibition by protease inhibitor alone: RPMI-1640, 1 mg/L PMSF, 10 µM E64, 1 mg/L pepstatin
Method: (§1) Antifungal susceptibility testing to determine the MIC was conducted by the broth microdilution procedure for filamentous fungi (M38-A2) (Clinical & Laboratory Standards Institute (CLSI). 2008. Reference Method for Broth Dilution Antifungal Susceptibility Testing of Filamentous Fungi; Approved Standard - Second Edition (M38-A2). Clinical and Laboratory Standards Institute, Wayne, PA). This experiment was carried out in triplicate with triplicate samples in each experiment. The proteolytic stability of NP213 was assessed by determining NP213 MIC as described above versus T. rubrum NCPF0118 and T. interdigitale NCPF0335 in the presence of the following protease inhibitors; serine proteases (1 mM phenylmethylsulfonyl fluoride; PMSF), metalloproteases (100 µM ethylenediaminetetraacetic acid; EDTA), aspartyl proteases (1 mg/L Pepstatin A) and cysteine proteases (10 µM trans-epoxysuccinyl-L-leucylamido(4-guanidino)butane; E-64).
(§2) T. rubrum NCPF0118 and T. interdigitale NCPF0335 in RPMI-1640 liquid medium. MIC was determined by the broth microdilution procedure (CLSI, 2008). Metalloprotease inhibitor -100 µM EDTA; Serine protease inhibitor - 1 mg/L PMSF; Cysteine protease inhibitor -10 µM E64; Aspartyl protease inhibitor - 1 mg/L pepstatin.
(§3) Antifungal susceptibility testing was conducted by the broth microdilution procedure as described in CLSI Approved Standard M38-A2. All peptides were dissolved in sterile deionised water (40 mg/ml) and stored at -20° C. until required. All experiments were carried out in triplicate, with triplicate samples in each experiment.

[2] = test system: T. interdigitale NCPF0335; format: cell-based; conditions: for effect of protease inhibitor alone on growth: 1 mM PMSF, 1 mg/L Pepstatin A, 10 µM E-64; for effect of protease inhibitor alone on growth / growth inhibition by protease inhibitor alone: 100 µM EDTA; for growth inhibition by protease inhibitor alone: RPMI-1640, 1 mg/L PMSF, 10 µM E64, 1 mg/L pepstatin
Method: as §1, §2, §3

[3] = test system: T. rubrum NCPF0118 and T. interdigitale NCPF0335; test: Antifungal susceptibility testing, summary statements for both dermatophytes; format: cell-based; conditions: Example 4 summary
Method: as §1
Antifungal susceptibility testing was carried out as described above, but with the following modifications. RPMI-1640 medium was substituted for 0.5% (w/v) powdered nail, skin keratin or sheep’s wool keratin suspensions in 10 mM sodium phosphate buffer, pH 7.0 containing 0.0025% (w/v) AlamarBlue™ (ThermoFisher Scientific, UK). […]

[4] = test system: T. rubrum NCPF0118; test: Metabolic activity (Alamar blue) of T. rubrum exposed to NP213 in dried nail lacquers or PEG4000 formulation; format: cell-based, Trichophyton rubrum
Method: NP213 (5 and 10% w/v) was formulated in 50% (v/v) PEG4000. Alternatively, NP213 was dissolved/suspended in the lacquer formulations at concentrations of 0, 5 or 10 % (w/v). 10 µl of each lacquer was applied to the base of a well in a flat-bottomed 96-well plate in triplicate wells and allowed to dry for 90 min. An inoculum of 3 × 10^3 cfu T. rubrum NCPF0118 was prepared in 1 × RPMI-1640 liquid medium and 200 µl was added to all wells containing lacquers and control wells containing no lacquer (growth control). An additional 3 wells per plate contained 200 µl RPMI-1640 liquid medium without inoculum to serve as sterility controls. To each well was added a minimal volume of Alamar blue solution (0.0025% (w/v) final concentration). Antifungal activity was determined based on changes in metabolic activity (due to metabolism of the cell viability indicator Alamar blue). Metabolic activity was monitored by fluorescence (Ex 530 nm/Em 590 nm) every 24 h for up to 168 h.

[5] = test system: Trichophyton rubrum NCPF0118; test: Experimental model of dermatophyte nail infection on human nail fragments, colony counts; format: cell-based; conditions: daily application to dorsal side of infected nail; FIG. 15
Method: An experimental model of dermatophyte nail infection was optimized to simulate onychomycosis under laboratory conditions and to test the antifungal efficacy of NP213. As an inert support and to provide a moist atmosphere, sterile water agar plates were prepared in 90-mm Petri dishes (1.5% (w/v) agar in sterile-deionised water). Petri dishes were divided into three sections, and individual pieces of sterile silicone rubber tubing (1-cm diameter; 3-mm height) were placed in each section, allowing the investigation of three nail fragments per plate. This prevented direct contact between the nails and the agar surface or the lid of the Petri dish. Such a setup was necessary because agar contains components that can bind to cationic peptides, including NP213, inhibiting their diffusion and reducing activity. Silicon tubing is permeable to oxygen and carbon dioxide, and its use ensured oxygen access to support fungal growth. Its diameter was sufficiently small to stably support the nail fragments. Uninfected human nails (sourced under ethical approval) were cleaned of all residual skin and debris before cutting to size (approximately four fragments were obtained from an adult great toenail), and their surface area and thickness were determined using a micrometer. […] Samples were plated on potato dextrose agar and incubated at 30° C. for 14 days, and the colonies were counted.

MIC (mg/L) T.rubrum NCPF0118 [1]	MIC (mg/L) T. interdigitale NPCF0335 [2]	SMILES	effect of protease inhibitor alone on growth [1]	growth inhibition by protease inhibitor alone [1]	effect of protease inhibitor alone on growth [2]	growth inhibition by protease inhibitor alone [2]	other results
–	–	CC(C)C[C@H](NC(=O)[C@H]1O[C@@H]1C(=O)O)C(=O)NCCCCN=C(N)N (relative stereo) [Peptide E-64, trans-epoxysuccinyl-L-leucylamido(4-guanidino)butane]	no effect on the growth	did not inhibit growth	no effect on the growth	did not inhibit growth	–
–	–	CC(C)C[C@H](NC(=O)[C@@H](O)[C@H](N)Cc1ccccc1)C(=O)O [Bestatin]	–	–	–	–	effect of metalloprotease inhibitor on the anti-fungal effect of the cyclic peptide [3]: enhanced
–	–	O=C(O)CN(CCN(CC(=O)O)CC(=O)O)CC(=O)O [EDTA, ethylenediaminetetraacetic acid]	no effect on the growth	did not inhibit growth	no effect on the growth	did not inhibit growth	effect of metalloprotease inhibitor on the anti-fungal effect of the cyclic peptide [3]: enhanced
500 mg/L (≈ 640 µM)	1000 mg/L (≈ 1280 µM)	N=C(N)NCCC[C@@H]1NC(=O)[C@H](CCCNC(=N)N)NC(=O)[C@H](CCCNC(=N)N)NC(=O)[C@H](CCCNC(=N)N)NC(=O)[C@H](CCCNC(=N)N)NC1=O [NP201, cyclic-5R] (cyclo(RRRRR))	–	–	–	–	–
250 mg/L (≈ 146 µM)	15.6 mg/L (≈ 9.08 µM)	N=C(N)NCCC[C@@H]1NC(=O)[C@H](CCCNC(=N)N)NC(=O)[C@H](CCCNC(=N)N)NC(=O)[C@H](CCCNC(=N)N)NC(=O)[C@H](CCCNC(=N)N)NC(=O)[C@H](CCCNC(=N)N)NC(=O)[C@H](CCCNC(=N)N)NC(=O)[C@H](CCCNC(=N)N)NC(=O)[C@H](CCCNC(=N)N)NC(=O)[C@H](CCCNC(=N)N)NC(=O)[C@H](CCCNC(=N)N)NC1=O [NP202, cyclic 11 R]	–	–	–	–	–
62.5 mg/L (≈ 26.7 µM)	3.9 mg/L (≈ 1.66 µM)	N=C(N)NCCC[C@@H]1NC(=O)[C@H](CCCNC(=N)N)NC(=O)[C@H](CCCNC(=N)N)NC(=O)[C@H](CCCNC(=N)N)NC(=O)[C@H](CCCNC(=N)N)NC(=O)[C@H](CCCNC(=N)N)NC(=O)[C@H](CCCNC(=N)N)NC(=O)[C@H](CCCNC(=N)N)NC(=O)[C@H](CCCNC(=N)N)NC(=O)[C@H](CCCNC(=N)N)NC(=O)[C@H](CCCNC(=N)N)NC(=O)[C@H](CCCNC(=N)N)NC(=O)[C@H](CCCNC(=N)N)NC(=O)[C@H](CCCNC(=N)N)NC(=O)[C@H](CCCNC(=N)N)NC1=O [NP203, cyclic 15R]	–	–	–	–	–
1000 mg/L (≈ 915 µM)	500 mg/L (≈ 457 µM)	N=C(N)NCCC[C@@H]1NC(=O)[C@H](CCCNC(=N)N)NC(=O)[C@H](CCCNC(=N)N)NC(=O)[C@H](CCCNC(=N)N)NC(=O)[C@H](CCCNC(=N)N)NC(=O)[C@H](CCCNC(=N)N)NC(=O)[C@H](CCCNC(=N)N)NC1=O [NP213, cyclic R-R-R-R-R-R-R]	–	–	–	–	antifungal activity in Roehm lacquer 1 compared to NP213 in 50% (v/v) PEG4000 ([4]; 5% and 10% (w/v) NP213, metabolic activity up to 168 h, FIG. 1): lower; antifungal activity in Roehm lacquer 2 compared to NP213 in 50% (v/v) PEG4000 ([4]; 5% and 10% (w/v) NP213, metabolic activity up to 168 h, FIG. 2): lower; antifungal activity in Roehm lacquer 3 compared to NP213 in 50% (v/v) PEG4000 ([4]; 5% and 10% (w/v) NP213, metabolic activity up to 168 h, FIG. 3): lower; antifungal activity in Roehm lacquer 4 compared to NP213 in 50% (v/v) PEG4000 ([4]; 5% and 10% (w/v) NP213, metabolic activity up to 168 h, FIG. 4): lower; antifungal activity in Roehm lacquer 5 compared to NP213 in 50% (v/v) PEG4000 ([4]; 5% and 10% (w/v) NP213, metabolic activity up to 168 h, FIG. 5): lower; antifungal activity in Anacor lacquer C compared to NP213 in 50% (v/v) PEG4000 ([4]; 5% and 10% (w/v) NP213, metabolic activity up to 168 h, FIG. 6): lower; antifungal activity in 2d lacquer compared to NP213 in 50% (v/v) PEG4000 ([4]; 10% (w/v) NP213 in 2d lacquer, metabolic activity up to 168 h, FIG. 7): lower; efficacy in the known nail lacquers ([4]; lacquers manufactured by Anacor and Roehm): not effective; MIC (mg/L) T.interdigitale NCPF0335 [2]: 500 mg/L (≈ 457 µM); time from beginning treatment until antifungal effects are seen [5]: ≤ 11 days
–	–	O=S(=O)(F)Cc1ccccc1 [PMSF, phenylmethylsulfonyl fluoride]	no effect on the growth	did not inhibit growth	no effect on the growth	did not inhibit growth	–
–	–	CC(C)CC(=O)N[C@H](C(=O)N[C@H](C(=O)N[C@@H](CC(C)C)[C@@H](O)CC(=O)N[C@@H](C)C(=O)N[C@@H](CC(C)C)[C@@H](O)CC(=O)O)C(C)C)C(C)C [Pepstatin A] (Isovaleryl-VV[Sta]A[Sta]-OH)	no effect on the growth	did not inhibit growth	no effect on the growth	did not inhibit growth	–
